Reference: article PMC5923142, “Selection and Characterization of Rupintrivir-Resistant Norwalk Virus Replicon Cells In Vitro” (Antimicrobial Agents and Chemotherapy, 2018)

Target: T1, GV I109V mutant protease (Norovirus, UniProt Q80J95, I1103V)
T1 construct: plasmids expressing norovirus protease from GI.1 (M87661), GII.4 (DQ658413), or GV (DQ285629) norovirus; expressed in transfected cells; host or cells: HEK293T
T1 sequence (Q80J95 995-1177 I1103V): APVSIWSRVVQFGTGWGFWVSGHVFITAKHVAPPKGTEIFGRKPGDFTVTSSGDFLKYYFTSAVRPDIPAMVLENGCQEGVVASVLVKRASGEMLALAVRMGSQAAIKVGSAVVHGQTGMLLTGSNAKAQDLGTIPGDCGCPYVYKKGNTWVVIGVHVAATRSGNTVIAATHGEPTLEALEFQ
Assay: Cell-based FRET assay, GV I109V protease
Design: species or system murine norovirus (MNV) GV (DQ285629)
Excerpt: The generation of plasmids expressing norovirus protease from GI.1 (M87661), GII.4 (DQ658413), or GV (DQ285629) norovirus and FRET assay constructs has been described previously ([18]). The plasmids carrying GI, GII, and GV proteases with the A105V, I109V, or A105V/I109V mutation were generated from the wild-type (WT) protease constructs described above by the QuikChange site-directed mutagenesis method. Mutant MNV genomes for reverse genetics were generated by two-step PCR mutagenesis of the WT MNV genome (pT7 MNV 3RZ) construct as described previously ([27]). The primers used for generation of the plasmids are listed in Tables S1 and S2 in the supplemental material.
The YFP/CFP ratio was used to determine FRET efficiency, as described previously ([18], [40]). Briefly, HEK293T cells were plated into black 96-well cell culture microplates (Greiner Bio-One) at a density of 5 × 10^4 cells/well in 100 μl of DMEM containing 10% fetal bovine serum with or without various concentrations of rupintrivir and then incubated for 4 h in a CO2 incubator at 37°C. […] The plates were then analyzed on a SpectraMax i3 instrument in fluorescence mode, with excitation set at 434 nm and the reading emissions set at 477 nm (CFP) and 527 nm (YFP). The background fluorescence from wells transfected with pcDNA3.1 was determined and subtracted. […]

SMILES: CCOC(=O)/C=C/[C@H](C[C@@H]1CCNC1=O)NC(=O)[C@@H](CC(=O)[C@@H](NC(=O)c1cc(C)on1)C(C)C)Cc1ccc(F)cc1 [rupintrivir, Rupintrivir]
- IC50 (HEK293T cells, GV NS1/2-NS3 FRET substrate): 2.7 ± 0.6 µM
- fold increase in IC50 (vs GV WT protease): 2.7 fold
